Test results: paper PMC5571044 (Scientific Reports, 2017)

What was measured:
[1] = molecular target: influenza A PB2long (FluA H3N2 PB2 241–741) (Influenza A virus (A/Udorn/307/1972(H3N2)), UniProt Q67296); assay: biochemical; type: binding, influenza A/Udorn/307/1972(H3N2)
[2] = system: A/H3N2/Udorn/72 PB2, PB1, PA, NP replicon (WT); assay: cells; type: cell-based, influenza A/H3N2/Udorn/72 in 293 T cells; conditions: Influenza A virus, H3N2, HEK-293T, 48 h, read-out: Replicon EC50, WT
[3] = molecular target: PB2long (Influenza A virus (A/Udorn/307/1972(H3N2)), UniProt Q67296); assay: biochemical; type: binding, influenza A/Udorn/307/1972(H3N2)
PB2long (Influenza A virus (A/Udorn/307/1972(H3N2)), UniProt Q67296), sequence (Q67296 241-741 limits assumed): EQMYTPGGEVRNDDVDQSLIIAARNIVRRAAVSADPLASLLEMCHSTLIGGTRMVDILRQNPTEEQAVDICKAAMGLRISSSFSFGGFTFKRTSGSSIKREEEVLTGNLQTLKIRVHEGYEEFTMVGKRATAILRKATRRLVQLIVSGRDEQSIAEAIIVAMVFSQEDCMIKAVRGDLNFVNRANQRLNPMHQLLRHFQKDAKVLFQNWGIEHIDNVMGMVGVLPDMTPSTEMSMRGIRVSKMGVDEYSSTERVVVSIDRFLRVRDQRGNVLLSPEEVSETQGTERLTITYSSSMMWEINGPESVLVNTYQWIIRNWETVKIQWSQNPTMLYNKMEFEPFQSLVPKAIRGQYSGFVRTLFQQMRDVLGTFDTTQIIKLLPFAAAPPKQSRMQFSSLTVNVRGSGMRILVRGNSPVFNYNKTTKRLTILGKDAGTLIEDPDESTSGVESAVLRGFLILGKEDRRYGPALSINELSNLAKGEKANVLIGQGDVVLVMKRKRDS

[4] = molecular target: PB2cap (Influenza A virus (A/Udorn/307/1972(H3N2)), UniProt Q67296); assay: biochemical; type: binding, influenza A/Udorn/307/1972(H3N2)
PB2cap (Influenza A virus (A/Udorn/307/1972(H3N2)), UniProt Q67296), sequence (Q67296 309-483 limits assumed): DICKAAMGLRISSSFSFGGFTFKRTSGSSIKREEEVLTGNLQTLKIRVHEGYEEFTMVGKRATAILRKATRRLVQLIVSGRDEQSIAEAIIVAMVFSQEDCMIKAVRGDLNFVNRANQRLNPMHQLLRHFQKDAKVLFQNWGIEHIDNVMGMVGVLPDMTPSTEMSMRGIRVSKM

influenza A PB2long (FluA H3N2 PB2 241–741) (Influenza A virus (A/Udorn/307/1972(H3N2)), UniProt Q67296), sequence (Q67296 241-741 limits assumed): as the sequence (Q67296 241-741 limits assumed) above

O=C(O)[C@H]1C2CCC(CC2)[C@@H]1Nc1nc(-c2c[nH]c3ncc(F)cc23)ncc1F [VX-787]
Kd [1]: 0.67 nM
EC50 [2]: 3.5 nM
Kd [3]: 0.0067 nM
kon ([3]; read-out: ka (association rate), PB2long): 2.9e+06 M⁻¹ s⁻¹
koff ([3]; read-out: kd (dissociation rate), PB2long): 2e-05 s⁻¹
Kd [4]: 78 nM
kon ([4]; read-out: ka (association rate), PB2cap): 59000 M⁻¹ s⁻¹
koff ([4]; read-out: kd (dissociation rate), PB2cap): 0.0046 s⁻¹
